Consider three molecules from patent US20040087559A1, “Methods for prevention and treatment of cancer” (priority 1999, published 2004).

Data set [1] addresses T1, 1α-OHase (Homo sapiens, UniProt O15528).
T1 sequence (O15528 1-508): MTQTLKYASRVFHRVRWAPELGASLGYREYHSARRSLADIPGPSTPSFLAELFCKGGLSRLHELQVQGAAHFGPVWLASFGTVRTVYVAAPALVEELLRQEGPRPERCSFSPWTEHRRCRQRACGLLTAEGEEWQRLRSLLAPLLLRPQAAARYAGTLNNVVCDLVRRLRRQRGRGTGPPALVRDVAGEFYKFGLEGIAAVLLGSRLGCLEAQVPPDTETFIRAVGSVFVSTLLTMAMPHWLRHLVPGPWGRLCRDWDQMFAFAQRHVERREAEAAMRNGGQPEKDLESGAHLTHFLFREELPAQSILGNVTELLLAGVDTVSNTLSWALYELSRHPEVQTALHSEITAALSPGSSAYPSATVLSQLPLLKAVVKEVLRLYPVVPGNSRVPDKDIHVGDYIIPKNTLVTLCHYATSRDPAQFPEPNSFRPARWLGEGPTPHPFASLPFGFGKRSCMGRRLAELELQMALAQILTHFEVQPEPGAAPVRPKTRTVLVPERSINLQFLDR
Conditions: BPH96-11; clotrimazole 20 μM; 25(OH)D3 50 nM, 2 h 37° C.
Description: (§1) Primary cultures of human prostatic epithelial cells were established and characterized as described by Lokeshwar et al., Cancer Res. 53:4493-4498 (1993). Prostatic epithelial cells cultured in a serum-free defined medium (Mammary Epithelial Growth Medium (MEGM), Clontech, San Diego, Calif.) express luminal epithelium specific cytokeratins (cytokeratins 8 and 18) as detected immunohistochemically using an anti-cytokeratin antibody, CAM 5.2 (Becton-Dickinson, Mountain View, Calif.). The serum-free medium contains MCDF170 supplemented with Epidermal Growth Factor, 25 ng/ml, hydrocortisone, 0.5 μg/ml, ethanolamine, 1×10^−4, insulin, 5 μg/ml, transferrin, 5 μg/ml, and whole bovine pituitary extract, 70 μg/ml.
(§2) Prostatic cells used were at their first passage in vitro and were cultured in the serum-free RPMI medium during incubation with vitamin D metabolites. […] Histological examination of adjacent tissue sections taken from specimens used for cultures confirmed their identity as normal or BPH cultures.

Data set [2] deals with T1, 1α-OHase. In kind it is cell-based. More on the design: two primary cultures of cells, NP96-5 and BPH96-11, derived from noncancerous human prostates; endogenous in cells; host or cells: primary human prostatic epithelial cultures NP96-5 (normal prostate) and BPH96-11 (BPH). The settings on record: Human keratinocytes; clotrimazole 20 μM; 25(OH)D3 50 nM, 2 h 37° C.
Data set [3] concerns the target T1, 1α-OHase. Conditions: NP96-5; clotrimazole 20 μM; 25(OH)D3 50 nM, 2 h 37° C.
Description: as §1, §2
For data set [4], the target named is T1, 1α-OHase. Conditions: BPH cultures; clotrimazole 20 μM; 25(OH)D3 50 nM, [3H]-25(OH)D3, DPPD 10 μM, 2 h 37° C. (FIG. 5).
Protocol: (§3) In addition, 1α-OHase activity was determined by using a radioactive metabolite, [^3H]-25(OH)D, as substrate.
Second passage of prostate cells derived from BPH cultures were incubated with nonradioactive 25(OH)D3 (50 nM), [^3H]-25(OH)D3 (0.91 μCi/nmol) and DPPD (10 μM) at 37° C. for two hours in the absence of clotrimazole (20 μM).
Data set [5] has as its target T1, 1α-OHase. Conditions: LNCaP; clotrimazole 20 μM; 25(OH)D3 50 nM, 2 h 37° C.
Protocol: (§4) (A) Cell Lines. DU 145, PC-3, and LNCaP cell lines were obtained from the American Type Culture Collection, Rockville, Md. All cell lines were tested and found to be free of Mycoplasma contamination.
(§5) (B) Culture Conditions. Prostate cancer cell lines were cultured following several passages in vitro. Cells were routinely cultured in complete medium (RPMI 1640 medium supplemented with fetal bovine serum (10%., HyClone Labs, Logan Utah) and gentamicin (10 μg/ml, Life Technologies, Inc., Gaithersburg, Md.)). Cells were seeded in 35 mm culture dishes (Corning-Costar, Cambridge, Mass.) at 1×10^5 cells/dish in complete medium. Medium was changed to a serum-free medium (RPMI 1640 containing insulin (10 μg/ml), transferrin ( 10 μg/ml) and selenous acid (1 ng/ml)) 24 hours before adding 25(OH)D3.
In data set [6] the target is T1, 1α-OHase. The settings on record: normal human prostate cells; clotrimazole 20 μM; 25(OH)D3 50 nM, [3H]-25(OH)D3, DPPD 10 μM, 2 h 37° C. (FIG. 3).
Protocol: as §3
Second passage of normal human prostate cells incubated with nonradioactive 25(OH)D3 (50 nM), [^3H]-25(OH)D3 (0.91 μCi/nmol) and 1,2-dianilinoethane (DPPD) (10 μM) at 37° C. for two hours in the absence of clotrimazole (20 μM) is shown in FIG. 2.
Second passage of normal human prostate cells were also incubated with nonradioactive 25(OH)D3 (50 nM), [^3H]-25(OH)D3 (0.91 μCi/nmol) and DPPD (10 μM) at 37° C. for two hours in the presence of clotrimazole (20 μM) in the presence of the cytochrome P450 inhibitor (clotrimazole).
Data set [7] has as its target T1, 1α-OHase. The settings on record: PC-3.
Protocol: as §4, §5
For data set [8], the target named is T1, 1α-OHase. The settings on record: DU 145.
Protocol: as §4, §5
Data set [9] deals with renal proximal tubular cells. The settings on record: primary cultures of renal proximal tubular cells; cited from earlier work.
The test system of data set [10] is human T-lymphotrophic virus-transformed lymphocytes. Conditions: cited from earlier work.
The subject of data set [11] is HEP 62 hepatoma cell line. Conditions: cited from earlier work.
In another data set the test system is human bone cells. Conditions: human bone cells (extra-renal site); cited from earlier work.
Data set [12] concerns human prostate cancer cells. The settings on record: cited from earlier work.
Data set [13] concerns normal human keratinocytes transfected with 1α-OHase cDNA. Description: [3H]thymidine incorporation of human keratinocytes transfected with 1α-OHase cDNA. In kind it is cell-based. As to the method:
FIG. 6 depicts a graph showing the effect of 25(OH)D3 concentration on the proliferative activity of normal human keratinocytes transfected with 1α-OHase cDNA. Cultured human keratinocytes transfected with a vector containing the 1α-OHase cDNA as described were incubated with 25(OH)D3 at different concentrations (1 nM, 10 nM, 100 nM) for 18 hours. [^3H]thymidine incorporation was measured as described. ●-: [^3H]thymidine incorporation of cells not transfected (“Control”); ∘-∘: [^3H]thymidine incorporation of cells transfected with vector containing 1α-OHase cDNA (“1α-OHase transfection”).
(F) Keratinocyte transfection. Keratinocytes were maintained in MCDB-153 medium. Cells in 24-well dishes at 50%-60% confluence were transfected with […] of 1α-OHase cDNA which had been subcloned into pCR3.1 vector (INVITROGEN). Empty vector was used as a control. For each transfection, 1.0 μg was diluted in 100 μl of medium containing 6-8 μl Plus Reagent. This mixture was incubated for 15 minutes at room temperature. […] [^3H]thymidine was added to the cultures and [^3H]thymidine incorporation into the DNA (interpreted as a measure of the DNA synthetic activity, i.e. proliferation of the cells) was measured as previously described (Chen, T. C., et al., J Nutr. Biochem. 4:49-57 (1993)). […]

[14] abbreviates: clotrimazole 20 μM, 25(OH)D3 50 nM, 2 h 37° C.

Entries after “also recorded” stand apart in the source; their conditions may differ. Read-outs that look alike come from different tables or passages of the source.

With `Clc1ccccc1C(c1ccccc1)(c1ccccc1)n1ccnc1` [clotrimazole], the “1,25(OH)2D Produced, P-450 Inhibitor Present” value on 1α-OHase [1] was “completely inhibited; also recorded: undetectable”; at 1α-OHase [2], “completely inhibited; also recorded: undetectable”; on 1α-OHase [3], “completely inhibited; also recorded: undetectable”; at 1α-OHase [5], “undetectable”; on 1α-OHase [7] (setting [14]), “completely inhibited; also recorded: undetectable”; on 1α-OHase [8] (setting [14]) it was “completely inhibited; also recorded: undetectable”. The “1,25(OH)2D metabolite level in the presence of clotrimazole (tritium activity, HPLC)” value at 1α-OHase [4] is recorded as “less than 200 cpm”. For the same molecule, on 1α-OHase [6], the “1,25(OH)2D synthesis in the presence of clotrimazole (HPLC)” value is on record as “undetectable”. The “inhibition of 1,25(OH)2D production” value against 1α-OHase [7] (clotrimazole) and against 1α-OHase [8] (clotrimazole) was 100% throughout.

With `C=C1/C(=C\C=C2/CCC[C@]3(C)[C@@H]([C@H](C)CCCC(C)(C)O)CC[C@@H]23)C[C@@H](O)C[C@@H]1O` [1,25(OH)2D, 1,25-dihydroxyvitamin D], in [9], the 1α-OHase enzyme activity was 5.3-5.6 pmol/hr/mg protein. In addition, the “1,25(OH)2D produced” value in data set [10] is listed as 1.6 pmol/mg protein/hr; in [11], 2.3 pmol/mg protein/hr; in the data set with human bone cells it was 0.068 pmol/mg protein/hr. In addition, in data set [12] (artificial basement membrane composed of human amnions), the “Level of 1,25(OH)2D that can significantly inhibit invasiveness” value was ≥ 10^−11 M. The “effect on invasiveness of DU 145 cells” value in data set [12] (physiological levels of 1,25(OH)2D, DU 145, correlated with decrease in secreted type IV collagenase (MMP-2 and MMP-9)) is “significantly inhibit the invasiveness”.

For `C=C1CC[C@H](O)C/C1=C/C=C1\CCC[C@]2(C)[C@@H]([C@H](C)CCCC(C)(C)O)CC[C@@H]12` [25(OH)D, 25-hydroxyvitamin D], the “proliferative activity of transfected vs non-transfected control keratinocytes” value in data set [13] (25(OH)D 10^−9 to 10^−7M, 18 hours (FIG. 6)) is on record as “more marked decrease in proliferative activity”. In addition, the “reduction in the proliferative activity ([3H]thymidine incorporation)” value in [13] (25(OH)D at 10^−7 M, 18 hours, cells transfected with 1α-OHase gene compared to untransfected keratinocytes, p<0.01) was 53.7%.
